Experiment: Study HDP-CDV-201: safety and tolerability (adverse events, laboratory abnormalities, discontinuations)
Assay type: in vivo, human (adult allogeneic HSCT recipients)
Method: Clinical Studies of HDP-CDV were performed and described in detail in the following Examples. For example, HDP-CDV-201 is a placebo-controlled, dose-escalating trial in HSCT CMV (R+) recipients, evaluating the ability of HDP-CDV to prevent or control CMV infection was carried out. Five cohorts were established in which participants or subjects received either placebo or the HDP-CDV orally, in doses ranging from 40 mg weekly (QW) to 200 mg twice weekly (BIW). Subjects who were post-HSCT were enrolled at the time of engraftment and randomized to HDP-CDV or placebo (3 to 1 ratio) and received blinded therapy until approximately 100 day post-transplantation. HDP-CDV doses were 40 mg QW, 100 mg QW, 200 mg QW, 200 mg BIW and 100 mg BIW. Escalation to the next dose was decided by the data monitoring committee after review of the safety data from the previous Cohort. Subjects who developed CMV disease or CMV infection requiring pre-emptive therapy with local standard of care were discontinued from blinded therapy and followed for 4 weeks. Subjects who completed treatment with blinded therapy were followed for 8 weeks post-therapy.
Data from Study HDP-CDV-201 also provided characterization of the safety and tolerability profile of HDP-CDV when administered for the prevention or control of CMV infection in high risk (R^+) post-HSCT adult subjects.
The Safety population (SAFETY) included all randomized subjects who took at least one dose of study treatment. This population was used to summarize safety outcomes based on the treatment actually received, in cases where a subject was treated contrary to the randomization schedule.
The safety and tolerability profile of HDP-CDV, including subject demographics and Baseline characteristics; the AE profile; and laboratory abnormalities of interest were analyzed in the cohorts followed in this investigation.
Subjects completing the treatment period received a full course of study medication; those completing the entire study attended visits through 8 weeks of follow up. Subjects who discontinued treatment may have done so for protocol specified reasons (e.g. development of clinically significant CMV infection requiring preemptive treatment with excluded anti-CMV medications) or for other reasons (e.g., withdrawal, adverse events, loss to follow-up). The disposition of subjects in Study HDP-CDV-201 during the double-blind, placebo-controlled treatment period (through Week 11) is listed by dosing Cohort in TABLE 23.
Adverse events were examined by severity to ensure that all safety signals were identified in this study population. Because of the frequency of events in HSCT recipients, particular attention was given to evaluation of Grade 3 […], 4 (severe), and 5 (fatal) adverse events.
Only those preferred terms for which at least one Grade 3 or higher event was experienced in any treatment group are listed. Cytomegalovirus-related AEs are excluded from this analysis.
HDP-CDV is a lipid conjugate of CDV. Because CDV is known to have adverse effects on renal function and bone marrow, decreased GFR and persistent neutropenia were identified as AEs of special interest. Key renal and hematological (TABLE 30) laboratory parameters were measured and listed below by Study HDP-CDV-201 treatment groups. TABLE 30 includes abnormal levels of serum creatinine, neutrophils, platelets, WBCs, and hemoglobin and includes data at Screening and during the treatment period.
A common metric for unit based dosing of medications is by weight (mg/kg). When the distribution of weights was examined for all subjects participating in the study, the median was 78 kg and the lower 25th percentile weight was approximately 65 kg, which translates to a cut-off of ˜3 mg/kg for a 200 mg total weekly dose. Based upon this approach, a cut-off of 3 mg/kg was used to assess the frequency of diarrhea and associated GI AEs reported for the subjects in Cohorts 3 or 4a (TABLE 40).

CCCCCCCCCCCCCCCCOCCCOP(=O)(O)COC(CO)Cn1ccc(N)nc1=O (stereo not drawn) [HDP-CDV]
4 (10.3%): TEAE Acute GVHD, Grade 3 (200 mg QW)
8 (26.7%): TEAE Vomiting, Frequency (200 mg BIW)
83%: subjects requiring treatment with steroids during the study (200 mg BIW)
5 (16.7%): TEAE Thrombocytopenia, Frequency (200 mg BIW)
7 (17.9%): TEAE Hyponatraemia, Frequency (200 mg QW)
2 (5.1%): TEAE ALT increased, Frequency (200 mg QW) | TEAE Acute GVHD, Grade 4 (200 mg QW) | TEAE Back Pain, Frequency (200 mg QW) | TEAE Back Pain, Grade 2 (200 mg QW) | TEAE Diarrhea, Grade 3 (200 mg QW) | TEAE Hypokalaemia, Grade 2 (200 mg QW) | TEAE Hyponatraemia, Grade 2 (200 mg QW) | TEAE Hyponatraemia, Grade 3 (200 mg QW) | TEAE LFT Abnormal, Frequency (200 mg QW)
3 (10%) Subject n (%): Discontinuation: Death (200 mg BIW, active treatment period)
1 (2.6%): TEAE ALT increased, Grade 2 (200 mg QW) | TEAE ALT increased, Grade 3 (200 mg QW) | TEAE AST increased, Frequency (200 mg QW) | TEAE AST increased, Grade 2 (200 mg QW) | TEAE Abdominal pain, Grade 2 (200 mg QW) | TEAE Abdominal pain, Grade 3 (200 mg QW) | TEAE Arthralgias, Frequency (200 mg QW) | TEAE Decreased appetite, Grade 2 (200 mg QW) | TEAE Fatigue, Grade 3 (200 mg QW) | TEAE Hyperbilirubinaemia, Grade 2 (200 mg QW) | TEAE Hyperbilirubinaemia, Grade 4 (200 mg QW) | TEAE Hyperglycaemia, Frequency (200 mg QW) | TEAE Hyperglycaemia, Grade 3 (200 mg QW) | TEAE Hyperkalemia, Frequency (200 mg QW)
13 (43.3%) Subject n (%): Discontinuation: Adverse event (200 mg BIW, active treatment period through Week 11)
0: TEAE Staphylococcal Bacteremia, Grade 4 (200 mg BIW) | TEAE Staphylococcal Bacteremia, Grade 5 (200 mg BIW) | TEAE Thrombocytopenia, Grade 3 (200 mg BIW) | TEAE Thrombocytopenia, Grade 5 (200 mg BIW) | TEAE Vomiting, Grade 3 (200 mg BIW) | TEAE Vomiting, Grade 4 (200 mg BIW) | TEAE Vomiting, Grade 5 (200 mg BIW) | TEAE ALT increased, Grade 4 (200 mg QW) | TEAE ALT increased, Grade 5 (200 mg QW) | TEAE AML, Recurrent, Frequency (200 mg QW) | TEAE AML, Recurrent, Grade 2 (200 mg QW) | TEAE AML, Recurrent, Grade 3 (200 mg QW) | TEAE AML, Recurrent, Grade 4 (200 mg QW) | TEAE AML, Recurrent, Grade 5 (200 mg QW) | TEAE AST increased, Grade 3 (200 mg QW) | TEAE AST increased, Grade 4 (200 mg QW) | TEAE AST increased, Grade 5 (200 mg QW) | TEAE Abdominal pain, Grade 4 (200 mg QW) | TEAE Abdominal pain, Grade 5 (200 mg QW) | TEAE Arthralgias, Grade 2 (200 mg QW) | TEAE Arthralgias, Grade 3 (200 mg QW) | TEAE Arthralgias, Grade 4 (200 mg QW) | TEAE Arthralgias, Grade 5 (200 mg QW) | TEAE Back Pain, Grade 3 (200 mg QW) | TEAE Back Pain, Grade 4 (200 mg QW) | TEAE Back Pain, Grade 5 (200 mg QW) | TEAE Decreased appetite, Grade 3 (200 mg QW) | TEAE Decreased appetite, Grade 4 (200 mg QW) | TEAE Decreased appetite, Grade 5 (200 mg QW) | TEAE Diarrhea, Grade 4 (200 mg QW) | TEAE Diarrhea, Grade 5 (200 mg QW) | TEAE Fatigue, Grade 2 (200 mg QW) | TEAE Fatigue, Grade 4 (200 mg QW) | TEAE Fatigue, Grade 5 (200 mg QW) | TEAE GGT Increased, Frequency (200 mg QW) | TEAE GGT Increased, Grade 2 (200 mg QW) | TEAE GGT Increased, Grade 3 (200 mg QW) | TEAE GGT Increased, Grade 4 (200 mg QW) | TEAE GGT Increased, Grade 5 (200 mg QW) | TEAE Generalized oedema, Frequency (200 mg QW) | TEAE Generalized oedema, Grade 2 (200 mg QW) | TEAE Generalized oedema, Grade 3 (200 mg QW) | TEAE Generalized oedema, Grade 4 (200 mg QW) | TEAE Generalized oedema, Grade 5 (200 mg QW) | TEAE Hyperbilirubinaemia, Grade 3 (200 mg QW) | TEAE Hyperbilirubinaemia, Grade 5 (200 mg QW) | TEAE Hyperglycaemia, Grade 2 (200 mg QW) | TEAE Hyperglycaemia, Grade 4 (200 mg QW) | TEAE Hyperglycaemia, Grade 5 (200 mg QW) | TEAE Hyperkalemia, Grade 2 (200 mg QW) | TEAE Hyperkalemia, Grade 3 (200 mg QW) | TEAE Hyperkalemia, Grade 4 (200 mg QW) | TEAE Hyperkalemia, Grade 5 (200 mg QW) | TEAE Hypocalcaemia, Frequency (200 mg QW) | TEAE Hypocalcaemia, Grade 2 (200 mg QW) | TEAE Hypocalcaemia, Grade 3 (200 mg QW) | TEAE Hypocalcaemia, Grade 4 (200 mg QW) | TEAE Hypocalcaemia, Grade 5 (200 mg QW) | TEAE Hypokalaemia, Grade 3 (200 mg QW) | TEAE Hypokalaemia, Grade 4 (200 mg QW) | TEAE Hypokalaemia, Grade 5 (200 mg QW) | TEAE Hyponatraemia, Grade 4 (200 mg QW) | TEAE Hyponatraemia, Grade 5 (200 mg QW) | TEAE LFT Abnormal, Grade 2 (200 mg QW) | TEAE LFT Abnormal, Grade 3 (200 mg QW)
3 (10.0%): TEAE Thrombocytopenia, Grade 4 (200 mg BIW)
5 (12.8%): TEAE Abdominal pain, Frequency (200 mg QW) | TEAE Acute GVHD, Grade 2 (200 mg QW) | TEAE Diarrhea, Grade 2 (200 mg QW) | TEAE Fatigue, Frequency (200 mg QW) | TEAE Hypokalaemia, Frequency (200 mg QW)
3 (7.7%): TEAE Decreased appetite, Frequency (200 mg QW) | TEAE Hyperbilirubinaemia, Frequency (200 mg QW)
2 (6.7%): TEAE Thrombocytopenia, Grade 2 (200 mg BIW)
21 (70.0%): Subjects Reporting Diarrhea as an AE (200 mg BIW, n = 30)
13 (33.3%): TEAE Acute GVHD, Frequency (200 mg QW) | TEAE Diarrhea, Frequency (200 mg QW)
1(2.6%): TEAE Acute GVHD, Grade 5 (200 mg QW)
27.6%: proportion of subjects with Grade 3 or higher ALT (>5×ULN) (200 mg BIW (8 of 30))
Diarrhea: dose limiting toxicity (200 mg BIW not tolerable)
4 (13.3%): TEAE Vomiting, Grade 2 (200 mg BIW)

From patent publication US20140303092A1 (CHIMERIX, INC., priority 2011, published 2014)
